System: panel of 3 experts
Assay: Sensory evaluation of strength of mouth-coating feel of mayonnaise, single compounds in ethanol (Experimental Example 14)
Assay type: in vivo
Settings: for mouth-coating feel (in words): Table 20
Description: as a Positive Control, General Commercially Available mayonnaise (manufactured by Ajinomoto Co., Inc., trade name “Pure Select (registered trade mark) mayonnaise”, oil and fat content: 73%) added with ethanol (manufactured by Japan Alcohol Corporation) (0.001 wt %) was used.
As a negative control, commercially available mayonnaise (manufactured by Ajinomoto Co., Inc., trade name “Pure Select (registered trade mark) KOKUUMA (registered trade mark) 65% Calorie Cut”, oil and fat content: 23%) with a smaller oil and fat content as compared with positive control mayonnaise and added with ethanol (manufactured by Japan Alcohol Corporation) (0.001 wt %) was used.
Given amounts of β-caryophyllene, β-caryophyllene oxide, clovanediol, (1R,3Z,5R,9S)-4,11,11-trimethyl-8-methylenebicyclo[7.2.0]undec-3-en-5-ol, (1R,4R,5R,9S)-4,11,11-trimethyl-8-methylenebicyclo[7.2.0]undecane-4,5-diol, clovanediol-3-monoacetate, clovanediol diacetate, clovanediol-3-monoisovalerate, α-pinene, α-pinene oxide, limonene, limonene oxide, α-terpineol (clovanediol, (1R,3Z,5R,9S)-4,11,11-trimethyl-8-methylenebicyclo[7.2.0]undec-3-en-5-ol, (1R,4R,5R,9S)-4,11,11-trimethyl-8-methylenebicyclo[7.2.0]undecane-4,5-diol, clovanediol-3-monoacetate, clovanediol diacetate and clovanediol-3-monoisovalerate used were those obtained in the above-mentioned Synthetic Examples and others used were manufactured by Sigma-Aldrich) were dissolved in ethanol (manufactured by Japan Alcohol Corporation), the ethanol (0.001 wt %) was added to the commercially available mayonnaise used for preparation of the above-mentioned negative control, and the obtained mayonnaise was used as an evaluation sample. The amounts of β-caryophyllene, β-caryophyllene oxide, clovanediol, (1R,3Z,5R,9S)-4,11,11-trimethyl-8-methylenebicyclo[7.2.0]undec-3-en-5-ol, (1R,4R,5R,9S)-4,11,11-trimethyl-8-methylenebicyclo[7.2.0]undecane-4,5-diol, clovanediol-3-monoacetate, clovanediol diacetate, clovanediol-3-monoisovalerate, α-pinene, α-pinene oxide, limonene, limonene oxide, α-terpineol dissolved in ethanol were each adjusted to fall within the range of 0.01-1 ppm with respect to mayonnaise, as shown in the following Table 20.
For the evaluation of the strength of the mouth-coating feel, a panel of 3 experts ate each mayonnaise of positive control, negative control and evaluation sample, and graded the evaluation samples in 0.1 point increments in the range of 0.0 to 5.0 points, with the positive control being 5.0 points and the negative control being 0.0 point.

[1] = concentration 1 ppm with respect to mayonnaise
[2] = concentration 0.01 ppm with respect to mayonnaise
[3] = concentration 0.1 ppm with respect to mayonnaise

SMILES	mouth-coating feel (in words)	strength of mouth-coating feel [1] [points]	strength of mouth-coating feel [2] [points]	strength of mouth-coating feel [3] [points]
C=C1CC[C@@H](O)/C(C)=C\C[C@@H]2[C@@H]1CC2(C)C [(1R,3Z,5R,9S)-4,11,11-trimethyl-8-methylenebicyclo[7.2.0]undec-3-en-5-ol]	enhanced	3.0		
C=C1CC[C@@H](O)[C@](C)(O)CC[C@@H]2[C@@H]1CC2(C)C [(1R,4R,5R,9S)-4,11,11-trimethyl-8-methylenebicyclo[7.2.0]undecane-4,5-diol]	enhanced	3.3		
CC(=O)O[C@H]1CC(C)(C)[C@@H]2CC[C@]3(C)C[C@]12CC[C@H]3OC(C)=O [clovanediol diacetate]	enhanced	3.2		
CC(=O)O[C@H]1CC(C)(C)[C@@H]2CC[C@]3(C)C[C@]12CC[C@H]3O [clovanediol-3-monoacetate]	enhanced	3.0		
CC(C)CC(=O)O[C@H]1CC(C)(C)[C@@H]2CC[C@]3(C)C[C@]12CC[C@H]3O [clovanediol-3-monoisovalerate]	enhanced	3.2		
CC1(C)C[C@H](O)[C@]23CC[C@@H](O)[C@](C)(CC[C@@H]12)C3 [clovanediol]	enhanced	3.1		
C=C(C)C1CCC2(C)OC2C1 (stereo not drawn) [limonene oxide]	enhanced	2.8		
C=C(C)[C@H]1CC=C(C)CC1 [limonene, reference compound]		0.0		
CC1(C)C2CC3OC3(C)C1C2 (stereo not drawn) [α-pinene oxide]	enhanced	3.3		
CC1=CCC2CC1C2(C)C (stereo not drawn) [α-pinene, reference compound]		0.6		
CC1=CCC(C(C)(C)O)CC1 (stereo not drawn) [α-terpineol]	enhanced	2.0		
C=C1CC[C@H]2O[C@]2(C)CC[C@@H]2[C@@H]1CC2(C)C [β-caryophyllene oxide]	enhanced	3.6	1.5	2.6
C=C1CC/C=C(\C)CC[C@@H]2[C@@H]1CC2(C)C [β-caryophyllene, reference compound]		0.1	0.0	0.0
